Results on 24 compounds are retold here after patent US20060276464A1, “Diarylsulfone sulfonamides and use thereof” (Wyeth, priority 2005, published 2006).

Where “and” joins values, the source holds several entries; their conditions need not be identical. Identical values can stand only once. Like-named read-outs stand apart in the source and are kept apart here.

Assay [1] concerns the target T1, SFRP-1 (Homo sapiens, UniProt Q8N474).
T1 sequence (Q8N474 32-314): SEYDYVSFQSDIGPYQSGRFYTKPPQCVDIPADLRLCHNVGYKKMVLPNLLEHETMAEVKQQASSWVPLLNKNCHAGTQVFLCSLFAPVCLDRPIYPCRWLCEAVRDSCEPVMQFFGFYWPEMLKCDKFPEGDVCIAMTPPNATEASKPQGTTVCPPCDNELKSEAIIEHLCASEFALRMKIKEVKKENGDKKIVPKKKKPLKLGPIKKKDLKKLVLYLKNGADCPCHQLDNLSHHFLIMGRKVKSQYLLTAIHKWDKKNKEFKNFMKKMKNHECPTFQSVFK
The assay can be described thus: Fluorescence polarization binding assay (competitive displacement of a probe compound from SFRP-1).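 Also: test compound competes with a fluorescent probe held by SFRP-1, seen as a drop in probe anisotropy after incubation in darkness, with anisotropy as function of rising compound dose.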 The conditions noted are these: fluorescence anisotropy, 45 nM SFRP-1, 20 nM probe. (Polarisation of emitted light reports the rotation of a fluorescent probe.)

The target in assay [2] is T1, SFRP-1. The assay can be described thus: Cell-based assay for in vitro measurement of SFRP-1/SARP2 antagonist activity (U2OS cells co-transfected with 16x TCF-tk-Luciferase reporter, Wnt and hSFRP-1).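 Also: U2OS cells co-transfected with a TCF-tk luciferase reporter, a Wnt vector, hSFRP-1 or empty vector and CMV-βgal, luciferase luminescence read in cell lysates alongside βgal activity.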 Conditions: U2OS. A general note: A reporter such as luciferase makes a cellular process visible.
Where [3] appears, read: read-out: Fold Induction with SFRP-1, Conc 15 μM, single dose, luciferase reporter, fold induction over SFRP-1 control, cells with SFRP-1.
The mark [4] stands for this setting: read-out: Fold Induction without SFRP-1, Conc 15 μM, single dose, luciferase reporter, cells without SFRP-1 (specificity control).

The IC50 is the concentration needed to halve the response being measured. Read a high IC50 as weaker potency. In assay [1], `Cc1nn(C)c(Cl)c1S(=O)(=O)c1ccc(C(C)C)c(S(=O)(=O)NC2CCOCC2)c1` [Example 569, 5-[(5-chloro-1,3-dimethyl-1H-pyrazol-4-yl)sulfonyl]-2-isopropyl-N-(tetrahydro-2H-pyran-4-yl)benzenesulfonamide] came in with an IC50 of 1500 nM. Also, the values for the fold induction at 15 µM in assay [2] (read-out: Fold Induction with SFRP-1) and in assay [2] (read-out: Fold Induction without SFRP-1) were 3.8 and 1.1, respectively.
Turning to `CC(C)c1ccc(S(=O)(=O)c2ccc(F)cc2)cc1S(=O)(=O)NC1CCN(C(=O)N2CCOCC2)CC1` [Example 572, 5-[(4-fluorophenyl)sulfonyl]-2-isopropyl-N-[1-(morpholin-4-ylcarbonyl)piperidin-4-yl]benzenesulfonamide], in assay [1], the IC50 amounted to 500 nM. The fold induction at 15 µM in assay [2] (setting [3]) worked out at 1.7; in assay [2] (setting [4]), 1.
For `CC(C)c1ccc(S(=O)(=O)c2ccc(F)cc2)cc1S(=O)(=O)NC1CCN(C(=O)N(C)C)CC1` [Example 573, 4-[({5-[(4-fluorophenyl)sulfonyl]-2-isopropylphenyl}sulfonyl)amino]-N,N-dimethylpiperidine-1-carboxamide], the IC50 in assay [1] stood at 600 nM. For the same compound, the results for the fold induction at 15 µM in assay [2] (setting [3]) and in assay [2] (setting [4]) were 2.1 and 1.1, respectively.
`Cc1ccc(S(=O)(=O)c2ccc(F)cc2)cc1S(=O)(=O)NC1CCN(Cc2ccccc2)CC1` [Example 574, N-(1-benzylpiperidin-4-yl)-5-[(4-fluorophenyl)sulfonyl]-2-methylbenzenesulfonamide] had an IC50 in assay [1] of 6000 nM. The fold induction at 15 µM in assay [2] (setting [3]) came out at 2.1; in assay [2] (setting [4]), 1.2.
Consider `CC(C)c1ccc([S+]([O-])c2ccccc2)cc1S(=O)(=O)NCCc1ccccn1` (stereo not drawn) [Example 575, 2-isopropyl-5-(phenylsulfinyl)-N-(2-pyridin-2-ylethyl)benzenesulfonamide], for which the IC50 in assay [1] is 1800 nM. Also, the fold induction at 15 µM came to 2.6 in assay [2] (setting [3]) and 1.1 in assay [2] (setting [4]).
`Cc1c(Br)cccc1S(=O)(=O)c1ccc(C(C)C)c(S(=O)(=O)NCCc2ccccn2)c1` [Example 577, 5-[(3-bromo-2-methylphenyl)sulfonyl]-2-isopropyl-N-(2-pyridin-2-ylethyl)benzenesulfonamide] yielded an IC50 in assay [1] of 700 nM. The fold induction at 15 µM was 1.9 in assay [2] (setting [3]) and 1.2 in assay [2] (setting [4]).
For `Cc1cccc(Cl)c1S(=O)(=O)c1ccc(C(C)C)c(S(=O)(=O)NCCc2ccccn2)c1` [Example 578, 5-[(2-chloro-6-methylphenyl)sulfonyl]-2-isopropyl-N-(2-pyridin-2-ylethyl)benzenesulfonamide], in that order: 600 nM, 2.8 and 1.2.
Regarding `Cc1cccc(S(=O)(=O)c2ccc(C(C)C)c(S(=O)(=O)NCCc3ccccn3)c2)c1` [Example 579, 2-isopropyl-5-[(3-methylphenyl)sulfonyl]-N-(2-pyridin-2-ylethyl)benzenesulfonamide], the IC50 in assay [1] was 600 nM. The fold induction at 15 µM in assay [2] (setting [3]) is 3.4; in assay [2] (setting [4]), 1.
The compound `CC(C)c1ccc(S(=O)(=O)c2ccc(N(C)CCC#N)cc2)cc1S(=O)(=O)NC1CCOCC1` [Example 580, 5-({4-[(2-cyanoethyl)(methyl)amino]phenyl}sulfonyl)-2-isopropyl-N-(tetrahydro-2H-pyran-4-yl)benzenesulfonamide] returned an IC50 in assay [1] of 700 nM. The fold induction at 15 µM in assay [2] (setting [3]) came to 2.8; in assay [2] (setting [4]), 1.3.
In turn, `CC(C)c1ccc(S(=O)(=O)c2ccc(N(C)CCC#N)cc2)cc1S(=O)(=O)NCC1CCOCC1` [Example 581, 5-({4-[(2-cyanoethyl)(methyl)amino]phenyl}sulfonyl)-2-isopropyl-N-(tetrahydro-2H-pyran-4-ylmethyl)benzenesulfonamide] had an IC50 in assay [1] of 1000 nM. Further, the fold induction at 15 µM in assay [2] (setting [3]) is 2.2; in assay [2] (setting [4]), 1.3.
In assay [1], `Cc1nccn1CCNS(=O)(=O)c1cc(S(=O)(=O)c2ccc(F)cc2)ccc1C(C)C` [Example 583, 5-[(4-fluorophenyl)sulfonyl]-2-isopropyl-N-[2-(2-methyl-1H-imidazol-1-yl)ethyl]benzenesulfonamide] returned an IC50 of 300 nM. Also, the fold induction at 15 µM turned out to be 3.9 in assay [2] (setting [3]) and 1.1 in assay [2] (setting [4]).
`CCc1nccn1CCNS(=O)(=O)c1cc(S(=O)(=O)c2ccc(F)cc2)ccc1C(C)C` [Example 584, N-[2-(2-ethyl-1H-imidazol-1-yl)ethyl]-5-[(4-fluorophenyl)sulfonyl]-2-isopropylbenzenesulfonamide] came in with an IC50 in assay [1] of 500 nM. Also, the values for the fold induction at 15 µM in assay [2] (setting [3]) and in assay [2] (setting [4]) were 3.4 and 1.1, respectively.
As to `CC(=O)N1CCC(NS(=O)(=O)c2cc(S(=O)(=O)c3ccc(F)cc3)ccc2C)CC1` [Example 585, N-(1-acetylpiperidin-4-yl)-5-[(4-fluorophenyl)sulfonyl]-2-methylbenzenesulfonamide], in assay [1], the IC50 was 8000 nM. Further, the fold induction at 15 µM amounted to 2.7 in assay [2] (setting [3]) and 1.1 in assay [2] (setting [4]).
For `Cc1ccc(S(=O)(=O)c2ccc(F)cc2)cc1S(=O)(=O)NC1CCN(C(=O)c2ccc(C#N)cc2)CC1` [Example 586, N-[1-(4-cyanobenzoyl)piperidin-4-yl]-5-[(4-fluorophenyl)sulfonyl]-2-methylbenzenesulfonamide], in that order: 2400 nM, 1.9 and 1.1.
With `Cc1ccc(S(=O)(=O)c2ccc(F)cc2)cc1S(=O)(=O)NC1CCN(C(=O)N(C)C)CC1` [Example 587, 4-[({5-[(4-fluorophenyl)sulfonyl]-2-methylphenyl}sulfonyl)amino]-N,N-dimethylpiperidine-1-carboxamide], the IC50 in assay [1] is 5000 nM. The fold induction at 15 µM in assay [2] (setting [3]) and in assay [2] (setting [4]) was 1.2 in each case.
As to `CC(C)c1ccc(S(=O)(=O)c2ccc(F)cc2)cc1S(=O)(=O)NCCn1ccnc1C(C)C` [Example 588, 5-[(4-fluorophenyl)sulfonyl]-2-isopropyl-N-[2-(2-isopropyl-1H-imidazol-1-yl)ethyl]benzenesulfonamide], the IC50 in assay [1] came out at 400 nM. The fold induction at 15 µM in assay [2] (setting [3]) was 3.6; in assay [2] (setting [4]), 1.7.
Compound `COCC(=O)N1CCC(NS(=O)(=O)c2cc(S(=O)(=O)c3ccc(F)cc3)ccc2C)CC1` [Example 589, 5-[(4-fluorophenyl)sulfonyl]-N-[1-(methoxyacetyl)piperidin-4-yl]-2-methylbenzenesulfonamide] registered an IC50 in assay [1] of 4000 nM. Further, the fold induction at 15 µM in assay [2] (setting [3]) worked out at 2.6; in assay [2] (setting [4]) it was 1.3.
With `CC(C)c1ccc([S@+]([O-])c2ccccc2)cc1S(=O)(=O)NCCc1ccccn1` [Example 590, 2-isopropyl-5-[(R)-phenylsulfinyl]-N-(2-pyridin-2-ylethyl)benzenesulfonamide], in assay [1], the IC50 is 2000 nM and 2500 nM. In addition, the fold induction at 15 µM in assay [2] (setting [3]) stood at 2.9; in assay [2] (setting [4]), 1.
Consider `CC(C)c1ccc([S@@+]([O-])c2ccccc2)cc1S(=O)(=O)NCCc1ccccn1` [Example 591, 2-isopropyl-5-[(S)-phenylsulfinyl]-N-(2-pyridin-2-ylethyl)benzenesulfonamide], for which the IC50 in assay [1] is 5000 nM and 6000 nM. Besides, the fold induction at 15 µM in assay [2] (setting [3]) amounted to 3.1; in assay [2] (setting [4]), 1.3.
Regarding `O=S(=O)(NCCc1ccccn1)c1cc(S(=O)(=O)c2ccccc2)ccc1Br` [Example 592, 2-bromo-5-(phenylsulfonyl)-N-(2-pyridin-2-ylethyl)benzenesulfonamide], in assay [1], the IC50 stood at 1000 nM. Moreover, the results for the fold induction at 15 µM in assay [2] (setting [3]) and in assay [2] (setting [4]) were 3.1 and 1.1, respectively.
For the compound `Cc1c(C#N)cccc1S(=O)(=O)c1ccc(C(C)C)c(S(=O)(=O)NCCc2ccccn2)c1` [Example 593, 5-[(3-cyano-2-methylphenyl)sulfonyl]-2-isopropyl-N-(2-pyridin-2-ylethyl)benzenesulfonamide], in assay [1], the IC50 came out at 900 nM. For the same compound, the figures for the fold induction at 15 µM in assay [2] (setting [3]) and in assay [2] (setting [4]) were 2 and 1.1, respectively.
Consider `CC(=O)c1cccc(S(=O)(=O)c2ccc(C(C)C)c(S(=O)(=O)NCCc3ccccn3)c2)c1C` [Example 594, 5-[(3-acetyl-2-methylphenyl)sulfonyl]-2-isopropyl-N-(2-pyridin-2-ylethyl)benzenesulfonamide], for which, in assay [1], the IC50 was found to be 4000 nM. Also, the fold induction at 15 µM is 2.3 in assay [2] (setting [3]) and 1 in assay [2] (setting [4]).
On to `CC(C)c1ccc(S(=O)(=O)c2ccc(F)c(Cl)c2)cc1S(=O)(=O)NCCc1ccccn1` [Example 595, 5-[(3-chloro-4-fluorophenyl)sulfonyl]-2-isopropyl-N-(2-pyridin-2-ylethyl)benzenesulfonamide], for which, in assay [1], the IC50 is 1200 nM. For the same compound, the fold induction at 15 µM in assay [2] (setting [3]) was found to be 3.4; in assay [2] (setting [4]) it was 1.4.
Regarding `Cc1cc(F)ccc1S(=O)(=O)c1ccc(C(C)C)c(S(=O)(=O)NCCc2ccccn2)c1` [Example 596, 5-[(4-fluoro-2-methylphenyl)sulfonyl]-2-isopropyl-N-(2-pyridin-2-ylethyl)benzenesulfonamide], the IC50 in assay [1] came to 1600 nM. Also, the fold induction at 15 µM amounted to 4.2 in assay [2] (setting [3]) and 1.3 in assay [2] (setting [4]).
